System: Hprt +/+ mice
Test: Histopathological analysis of mouse tissues after 6TG
Settings: Hprt +/+
[1] = 6TG lethal 50-720 mg/kg, 7 mice

Nc1nc(S)c2[nH]cnc2n1 [6TG, 2-amino-6-merkaptopurine]
1.6 ± 0.9: Gastric epithelium Necrosis, average of lesion severity grade [1]
0.7 ± 0.9: Liver Fatty change, average of lesion severity grade [1]
4: Bone marrow Depletion, severity grade (50 mg/kg i.p.) | Bone marrow Depletion, severity grade (100 mg/kg i.p.) | Bone marrow Depletion, severity grade (150 mg/kg i.p.) | Bone marrow Necrosis, severity grade (150 mg/kg i.p.) | Spleen Necrosis, severity grade (225 mg/kg i.p.) | Bone marrow Depletion, severity grade (338 mg/kg i.p.) | Bone marrow Necrosis, severity grade (507 mg/kg i.p.) | Bone marrow Depletion, severity grade (720 mg/kg i.p.) | Bone marrow Necrosis, severity grade (720 mg/kg i.p.)
2: Gastric epithelium Atrophy, severity grade (50 mg/kg i.p.) | Intestinal epithelium Atrophy, severity grade (50 mg/kg i.p.) | Liver Atrophy necrosis, severity grade (100 mg/kg i.p.) | Spleen Necrosis, severity grade (100 mg/kg i.p.) | Liver Atrophy necrosis, severity grade (150 mg/kg i.p.) | Liver Centrilobular hypertrophy, severity grade (150 mg/kg i.p.) | Spleen Lymphoid depletion, severity grade (150 mg/kg i.p.) | Spleen Necrosis, severity grade (150 mg/kg i.p.) | Liver Atrophy necrosis, severity grade (225 mg/kg i.p.) | Liver Centrilobular hypertrophy, severity grade (338 mg/kg i.p.) | Liver Fatty change, severity grade (338 mg/kg i.p.) | Spleen Lymphoid depletion, severity grade (338 mg/kg i.p.) | Liver Fatty change, severity grade (507 mg/kg i.p.) | Spleen Necrosis, severity grade (507 mg/kg i.p.) | Liver Atrophy necrosis, severity grade (720 mg/kg i.p.)
1.9 ± 0.7: Liver Atrophy necrosis, average of lesion severity grade [1]
1.0 ± 0.8: Liver Centrilobular hypertrophy, average of lesion severity grade [1]
3: Bone marrow Necrosis, severity grade (50 mg/kg i.p.) | Liver Atrophy necrosis, severity grade (50 mg/kg i.p.) | Bone marrow Necrosis, severity grade (100 mg/kg i.p.) | Gastric epithelium Atrophy, severity grade (100 mg/kg i.p.) | Gastric epithelium Necrosis, severity grade (100 mg/kg i.p.) | Intestinal epithelium Atrophy, severity grade (100 mg/kg i.p.) | Intestinal epithelium Necrosis, severity grade (100 mg/kg i.p.) | Bone marrow Depletion, severity grade (225 mg/kg i.p.) | Bone marrow Necrosis, severity grade (225 mg/kg i.p.) | Spleen Lymphoid depletion, severity grade (225 mg/kg i.p.) | Bone marrow Necrosis, severity grade (338 mg/kg i.p.) | Gastric epithelium Atrophy, severity grade (338 mg/kg i.p.) | Gastric epithelium Necrosis, severity grade (338 mg/kg i.p.) | Intestinal epithelium Atrophy, severity grade (338 mg/kg i.p.) | Intestinal epithelium Necrosis, severity grade (338 mg/kg i.p.) | Bone marrow Depletion, severity grade (507 mg/kg i.p.) | Spleen Lymphoid depletion, severity grade (720 mg/kg i.p.) | Spleen Necrosis, severity grade (720 mg/kg i.p.)
1.7 ± 0.9: Gastric epithelium Atrophy, average of lesion severity grade [1] | Intestinal epithelium Atrophy, average of lesion severity grade [1]
3.7 ± 0.5: Bone marrow Depletion, average of lesion severity grade [1]
3.4 ± 0.5: Bone marrow Necrosis, average of lesion severity grade [1]
1.6 ± 1.0: Intestinal epithelium Necrosis, average of lesion severity grade [1]
1: Gastric epithelium Necrosis, severity grade (50 mg/kg i.p.) | Intestinal epithelium Necrosis, severity grade (50 mg/kg i.p.) | Spleen Lymphoid depletion, severity grade (50 mg/kg i.p.) | Spleen Lymphoid depletion, severity grade (100 mg/kg i.p.) | Gastric epithelium Atrophy, severity grade (150 mg/kg i.p.) | Gastric epithelium Necrosis, severity grade (150 mg/kg i.p.) | Intestinal epithelium Atrophy, severity grade (150 mg/kg i.p.) | Intestinal epithelium Necrosis, severity grade (150 mg/kg i.p.) | Gastric epithelium Atrophy, severity grade (225 mg/kg i.p.) | Gastric epithelium Necrosis, severity grade (225 mg/kg i.p.) | Intestinal epithelium Atrophy, severity grade (225 mg/kg i.p.) | Intestinal epithelium Necrosis, severity grade (225 mg/kg i.p.) | Liver Centrilobular hypertrophy, severity grade (225 mg/kg i.p.) | Liver Fatty change, severity grade (225 mg/kg i.p.) | Liver Atrophy necrosis, severity grade (338 mg/kg i.p.) | Spleen Necrosis, severity grade (338 mg/kg i.p.) | Gastric epithelium Atrophy, severity grade (507 mg/kg i.p.) | Gastric epithelium Necrosis, severity grade (507 mg/kg i.p.) | Intestinal epithelium Atrophy, severity grade (507 mg/kg i.p.) | Intestinal epithelium Necrosis, severity grade (507 mg/kg i.p.) | Liver Atrophy necrosis, severity grade (507 mg/kg i.p.) | Liver Centrilobular hypertrophy, severity grade (507 mg/kg i.p.) | Spleen Lymphoid depletion, severity grade (507 mg/kg i.p.) | Gastric epithelium Atrophy, severity grade (720 mg/kg i.p.) | Gastric epithelium Necrosis, severity grade (720 mg/kg i.p.) | Intestinal epithelium Atrophy, severity grade (720 mg/kg i.p.) | Intestinal epithelium Necrosis, severity grade (720 mg/kg i.p.) | Liver Centrilobular hypertrophy, severity grade (720 mg/kg i.p.)
3.5 ± 0.5: Bone marrow Depletion, severity grade (25 mg/kg i.p.)
1.9 ± 0.9: Spleen Lymphoid depletion, average of lesion severity grade [1]

From patent publication US20030032003A1, “IN VIVO SELECTION” (priority 2000, published 2003)
